Where two headings read alike, the source gives them in different places.
Legend:
hRIOK2 = molecular target: T1, hRIOK2 (Homo sapiens, UniProt Q9BVS4); test: KINOMEscan; type: binding
T1 construct: purchased DiscoverX (KINOMEscan platform)

hFXR = hFXR (Homo sapiens, UniProt Q96RI1); test: Nuclear hormone receptor assay (Eurofins-CEREP)
hASK1 = molecular target: T2, hASK1 (Homo sapiens, UniProt Q99683); test: KINOMEscan; type: binding
T2 construct: purchased DiscoverX

hABL1 = molecular target: T3, hABL1 (Homo sapiens, UniProt P00519); test: KINOMEscan; type: binding
T3 construct: purchased DiscoverX (KINOMEscan platform)

hMET(Y1235D) = molecular target: T4, hMET(Y1235D) (Homo sapiens, UniProt P08581, Y1235D); test: KINOMEscan; type: binding
T4 construct: purchased DiscoverX
T4 sequence (P08581 25-1390 Y1235D): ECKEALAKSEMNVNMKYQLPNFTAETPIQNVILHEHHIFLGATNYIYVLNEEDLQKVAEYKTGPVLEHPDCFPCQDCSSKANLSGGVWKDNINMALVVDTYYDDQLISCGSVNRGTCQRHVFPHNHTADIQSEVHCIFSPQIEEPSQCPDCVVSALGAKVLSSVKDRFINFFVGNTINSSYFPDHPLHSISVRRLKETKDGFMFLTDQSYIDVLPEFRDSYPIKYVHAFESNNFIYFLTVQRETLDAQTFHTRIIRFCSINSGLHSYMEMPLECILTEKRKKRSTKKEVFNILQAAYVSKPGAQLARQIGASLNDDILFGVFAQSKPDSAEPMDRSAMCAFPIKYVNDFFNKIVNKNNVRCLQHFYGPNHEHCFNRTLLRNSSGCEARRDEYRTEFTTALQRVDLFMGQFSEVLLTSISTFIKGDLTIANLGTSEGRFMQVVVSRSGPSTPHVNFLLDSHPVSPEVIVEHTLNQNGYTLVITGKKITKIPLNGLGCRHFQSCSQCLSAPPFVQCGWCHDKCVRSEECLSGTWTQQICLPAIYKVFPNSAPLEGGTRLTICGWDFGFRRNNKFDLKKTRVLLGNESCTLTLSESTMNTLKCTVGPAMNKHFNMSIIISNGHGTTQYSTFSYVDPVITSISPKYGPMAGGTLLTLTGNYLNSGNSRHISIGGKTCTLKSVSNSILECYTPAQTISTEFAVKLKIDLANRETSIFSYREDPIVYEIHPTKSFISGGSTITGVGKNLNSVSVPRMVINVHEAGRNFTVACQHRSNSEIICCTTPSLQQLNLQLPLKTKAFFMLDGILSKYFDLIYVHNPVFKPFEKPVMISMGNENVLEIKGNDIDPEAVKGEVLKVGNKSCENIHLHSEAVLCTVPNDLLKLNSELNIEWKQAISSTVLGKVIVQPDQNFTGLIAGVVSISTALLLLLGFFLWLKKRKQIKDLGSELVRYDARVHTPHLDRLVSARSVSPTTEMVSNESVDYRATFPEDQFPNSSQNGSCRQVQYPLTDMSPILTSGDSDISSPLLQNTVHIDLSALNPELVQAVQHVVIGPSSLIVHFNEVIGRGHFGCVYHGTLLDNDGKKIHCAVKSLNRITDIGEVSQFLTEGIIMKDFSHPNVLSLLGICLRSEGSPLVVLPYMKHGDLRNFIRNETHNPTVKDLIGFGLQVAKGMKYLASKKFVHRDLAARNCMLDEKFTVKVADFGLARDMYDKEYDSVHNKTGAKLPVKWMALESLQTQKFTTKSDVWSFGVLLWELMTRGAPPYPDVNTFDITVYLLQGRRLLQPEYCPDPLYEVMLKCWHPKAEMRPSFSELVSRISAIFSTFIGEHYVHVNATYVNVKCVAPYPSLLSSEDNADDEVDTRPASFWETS

hJAK2(JH1Dom.-catalytic) = molecular target: T5, hJAK2(JH1Dom.-catalytic) (Homo sapiens, UniProt O60674); test: KINOMEscan; type: binding
T5 construct: hJAK2(JH1Dom.-catalytic); purchased DiscoverX (KINOMEscan panel)
T5 sequence (O60674 849-1124 limits assumed): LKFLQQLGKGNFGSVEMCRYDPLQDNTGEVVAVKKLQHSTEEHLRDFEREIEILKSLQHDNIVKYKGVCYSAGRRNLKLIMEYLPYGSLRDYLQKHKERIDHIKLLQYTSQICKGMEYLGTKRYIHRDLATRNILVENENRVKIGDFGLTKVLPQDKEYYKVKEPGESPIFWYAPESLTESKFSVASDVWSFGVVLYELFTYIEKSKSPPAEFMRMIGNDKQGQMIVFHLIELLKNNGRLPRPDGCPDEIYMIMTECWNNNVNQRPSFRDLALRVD

hKIT(D816V) = molecular target: T6, hKIT(D816V) (Homo sapiens, UniProt P10721, D816V); test: KINOMEscan; type: binding
T6 construct: purchased DiscoverX (KINOMEscan panel)

hERK2 = molecular target: T7, hERK2 (Homo sapiens, UniProt P28482); test: KINOMEscan; type: binding
T7 construct: purchased DiscoverX

hTESK1 = molecular target: T8, hTESK1 (Homo sapiens, UniProt Q15569); test: KINOMEscan; type: binding
T8 construct: purchased DiscoverX

[1] = system: ESCC, HCC, and breast cancer cell lines; test: Proliferation assay (CellTiter-Glo); type: cell-based; details: Homo sapiens, range over cell lines of all three panels
Experimental: (§1) Cell viability was measured using CellTiter-Glo^TM (Promega) according to the manufacturer's instructions.

hD2L = hD2L (Homo sapiens, UniProt P14416); test: β-arrestin Antagonist (Eurofins-CEREP); details: read-out: % Effect, Inhibition
hABL1(pQ252H) = molecular target: T9, hABL1(pQ252H) (Homo sapiens, UniProt P00519, Q252H); test: KINOMEscan; type: binding
T9 construct: purchased DiscoverX (KINOMEscan platform)

hAKT2 = molecular target: T10, hAKT2 (Homo sapiens, UniProt P31751); test: KINOMEscan; type: binding
T10 construct: purchased DiscoverX

hCAMK1G = molecular target: T11, hCAMK1G (Homo sapiens, UniProt Q96NX5); test: KINOMEscan; type: binding
T11 construct: purchased DiscoverX

hHPK1 = molecular target: T12, hHPK1 (Homo sapiens, UniProt Q92918); test: KINOMEscan; type: binding
T12 construct: purchased DiscoverX (KINOMEscan panel)

hTLK1 = molecular target: T13, hTLK1 (Homo sapiens, UniProt Q9UKI8); test: KINOMEscan; type: binding
T13 construct: purchased DiscoverX

hGSK3A = molecular target: T14, hGSK3A (Homo sapiens, UniProt P49840); test: KINOMEscan; type: binding
T14 construct: purchased DiscoverX

hABL1(pY253F) = molecular target: T15, hABL1(pY253F) (Homo sapiens, UniProt P00519, Y253F); test: KINOMEscan; type: binding
T15 construct: purchased DiscoverX (KINOMEscan platform)

hAURKA = molecular target: T16, hAURKA (Homo sapiens, UniProt O14965); test: KINOMEscan; type: binding
T16 construct: purchased DiscoverX

hDYRK2 = molecular target: T17, hDYRK2 (Homo sapiens, UniProt Q92630); test: KINOMEscan; type: binding
T17 construct: purchased DiscoverX

MDA MB-231 cells = test: Proliferation assay (CellTiter-Glo); type: cell-based, human
Experimental: as §1

hMAK = molecular target: T18, hMAK (Homo sapiens, UniProt P20794); test: KINOMEscan; type: binding
T18 construct: purchased DiscoverX (KINOMEscan platform)

hFGFR4 = molecular target: T19, hFGFR4 (Homo sapiens, UniProt P22455); test: KINOMEscan; type: binding
T19 construct: purchased DiscoverX

hAURKC = molecular target: T20, hAURKC (Homo sapiens, UniProt Q9UQB9); test: KINOMEscan; type: binding
T20 construct: purchased DiscoverX

hWNK1 = molecular target: T21, hWNK1 (Homo sapiens, UniProt Q9H4A3); test: KINOMEscan; type: binding
T21 construct: purchased DiscoverX
T21 sequence (Q9H4A3 whole entry): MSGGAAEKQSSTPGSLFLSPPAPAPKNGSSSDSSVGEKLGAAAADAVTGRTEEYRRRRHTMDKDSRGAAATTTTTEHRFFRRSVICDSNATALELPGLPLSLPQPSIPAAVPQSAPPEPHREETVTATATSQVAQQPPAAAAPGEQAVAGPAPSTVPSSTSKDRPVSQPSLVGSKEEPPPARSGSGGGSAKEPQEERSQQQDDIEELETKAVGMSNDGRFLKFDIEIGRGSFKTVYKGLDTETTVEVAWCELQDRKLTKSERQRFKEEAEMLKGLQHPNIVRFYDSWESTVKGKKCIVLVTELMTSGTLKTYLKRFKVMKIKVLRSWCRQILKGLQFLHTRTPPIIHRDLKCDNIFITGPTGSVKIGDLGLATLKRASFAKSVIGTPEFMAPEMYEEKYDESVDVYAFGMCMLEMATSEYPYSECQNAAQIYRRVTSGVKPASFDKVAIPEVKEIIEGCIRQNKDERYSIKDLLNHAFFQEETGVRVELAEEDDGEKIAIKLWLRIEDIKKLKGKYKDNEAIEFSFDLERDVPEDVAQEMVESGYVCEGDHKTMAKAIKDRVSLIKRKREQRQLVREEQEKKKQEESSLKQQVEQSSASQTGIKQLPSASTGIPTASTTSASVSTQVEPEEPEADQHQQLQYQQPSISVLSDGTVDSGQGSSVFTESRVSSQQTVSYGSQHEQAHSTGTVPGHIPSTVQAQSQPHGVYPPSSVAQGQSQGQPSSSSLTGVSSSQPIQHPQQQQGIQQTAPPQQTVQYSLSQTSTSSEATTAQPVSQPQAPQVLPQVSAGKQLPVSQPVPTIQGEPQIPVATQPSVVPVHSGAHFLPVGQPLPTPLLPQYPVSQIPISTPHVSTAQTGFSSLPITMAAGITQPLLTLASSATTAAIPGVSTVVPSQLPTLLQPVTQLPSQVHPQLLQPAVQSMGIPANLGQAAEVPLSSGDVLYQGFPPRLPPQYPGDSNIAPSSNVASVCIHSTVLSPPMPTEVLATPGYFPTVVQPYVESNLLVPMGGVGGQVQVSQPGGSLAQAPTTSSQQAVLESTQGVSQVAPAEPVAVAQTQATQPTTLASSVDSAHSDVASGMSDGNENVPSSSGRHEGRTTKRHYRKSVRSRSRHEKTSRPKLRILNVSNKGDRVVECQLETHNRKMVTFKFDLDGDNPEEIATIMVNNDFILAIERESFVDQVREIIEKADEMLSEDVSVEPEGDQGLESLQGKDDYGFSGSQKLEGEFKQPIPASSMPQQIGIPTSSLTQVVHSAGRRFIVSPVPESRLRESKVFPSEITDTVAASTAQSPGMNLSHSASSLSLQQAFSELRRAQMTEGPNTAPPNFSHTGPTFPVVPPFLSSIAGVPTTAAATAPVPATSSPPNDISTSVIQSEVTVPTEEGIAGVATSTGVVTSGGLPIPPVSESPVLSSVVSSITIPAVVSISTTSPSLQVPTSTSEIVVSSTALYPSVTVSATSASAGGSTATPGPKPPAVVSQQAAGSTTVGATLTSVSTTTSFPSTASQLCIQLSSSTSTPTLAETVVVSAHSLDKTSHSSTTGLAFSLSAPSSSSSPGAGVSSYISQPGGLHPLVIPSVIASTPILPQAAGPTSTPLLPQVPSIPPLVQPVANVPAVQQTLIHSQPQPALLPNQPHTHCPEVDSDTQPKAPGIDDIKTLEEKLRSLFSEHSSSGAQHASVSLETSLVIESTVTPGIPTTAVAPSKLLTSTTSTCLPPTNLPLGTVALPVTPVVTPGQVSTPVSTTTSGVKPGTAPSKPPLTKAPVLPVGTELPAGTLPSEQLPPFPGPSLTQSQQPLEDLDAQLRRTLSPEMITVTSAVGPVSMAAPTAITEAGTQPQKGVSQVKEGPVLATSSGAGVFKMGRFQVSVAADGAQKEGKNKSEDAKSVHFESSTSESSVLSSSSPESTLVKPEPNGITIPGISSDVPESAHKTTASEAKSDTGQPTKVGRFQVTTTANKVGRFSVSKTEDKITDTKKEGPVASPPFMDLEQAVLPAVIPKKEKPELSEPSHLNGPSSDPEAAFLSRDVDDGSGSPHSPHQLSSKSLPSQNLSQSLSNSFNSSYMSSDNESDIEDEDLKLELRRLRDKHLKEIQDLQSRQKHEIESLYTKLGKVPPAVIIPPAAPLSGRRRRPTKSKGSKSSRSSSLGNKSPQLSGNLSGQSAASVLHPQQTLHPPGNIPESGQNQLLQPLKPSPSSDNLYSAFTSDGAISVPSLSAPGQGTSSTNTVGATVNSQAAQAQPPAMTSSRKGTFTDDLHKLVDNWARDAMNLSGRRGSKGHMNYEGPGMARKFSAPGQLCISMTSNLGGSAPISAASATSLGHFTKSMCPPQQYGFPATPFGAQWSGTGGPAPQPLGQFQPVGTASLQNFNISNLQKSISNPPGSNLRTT

hULK1 = molecular target: T22, hULK1 (Homo sapiens, UniProt O75385); test: KINOMEscan; type: binding
T22 construct: purchased DiscoverX

hYANK1 = molecular target: T23, hYANK1 (Homo sapiens, UniProt Q8WU08); test: KINOMEscan; type: binding
T23 construct: purchased DiscoverX

hTLK2 = molecular target: T24, hTLK2 (Homo sapiens, UniProt Q86UE8); test: KINOMEscan; type: binding
T24 construct: purchased DiscoverX

hEPHB2 = molecular target: T25, hEPHB2 (Homo sapiens, UniProt P29323); test: KINOMEscan; type: binding
T25 construct: purchased DiscoverX
T25 sequence (P29323 19-1055): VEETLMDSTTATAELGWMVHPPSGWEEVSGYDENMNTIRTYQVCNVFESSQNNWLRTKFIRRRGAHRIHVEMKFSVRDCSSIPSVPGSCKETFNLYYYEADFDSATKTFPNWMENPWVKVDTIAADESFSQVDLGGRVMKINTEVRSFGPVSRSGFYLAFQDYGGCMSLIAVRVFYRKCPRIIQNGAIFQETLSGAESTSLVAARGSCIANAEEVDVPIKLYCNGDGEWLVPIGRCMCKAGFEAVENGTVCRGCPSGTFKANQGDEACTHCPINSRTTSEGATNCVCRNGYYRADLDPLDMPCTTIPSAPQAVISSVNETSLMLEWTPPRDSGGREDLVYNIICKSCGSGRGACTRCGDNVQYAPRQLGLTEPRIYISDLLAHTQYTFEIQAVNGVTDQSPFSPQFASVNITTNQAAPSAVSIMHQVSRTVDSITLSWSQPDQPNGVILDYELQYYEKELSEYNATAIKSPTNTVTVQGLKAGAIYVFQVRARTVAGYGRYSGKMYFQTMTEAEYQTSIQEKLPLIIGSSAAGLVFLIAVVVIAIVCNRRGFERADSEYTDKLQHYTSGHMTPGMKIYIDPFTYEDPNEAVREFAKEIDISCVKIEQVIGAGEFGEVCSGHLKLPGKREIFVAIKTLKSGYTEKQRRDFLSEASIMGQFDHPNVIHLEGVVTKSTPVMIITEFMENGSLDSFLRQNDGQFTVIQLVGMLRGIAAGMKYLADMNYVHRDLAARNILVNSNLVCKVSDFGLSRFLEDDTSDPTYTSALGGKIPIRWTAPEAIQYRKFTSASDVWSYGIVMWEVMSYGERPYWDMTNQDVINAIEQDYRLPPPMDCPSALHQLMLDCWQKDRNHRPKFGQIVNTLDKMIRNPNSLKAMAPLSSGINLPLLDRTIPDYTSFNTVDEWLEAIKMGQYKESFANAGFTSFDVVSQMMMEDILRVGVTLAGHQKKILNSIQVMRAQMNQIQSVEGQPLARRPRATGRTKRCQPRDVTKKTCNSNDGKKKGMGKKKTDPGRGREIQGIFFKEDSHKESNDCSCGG

hFAK = molecular target: T26, hFAK (Homo sapiens, UniProt Q05397); test: KINOMEscan; type: binding
T26 construct: purchased DiscoverX

hLXRα = molecular target: T27, hLXRα (Homo sapiens, UniProt Q13133); test: Nuclear hormone receptor assay (Eurofins-CEREP); details: read-out: Relative IC50
T27 construct: Eurofins-CEREP

hLATS1 = molecular target: T28, hLATS1 (Homo sapiens, UniProt O95835); test: KINOMEscan; type: binding
T28 construct: purchased DiscoverX (KINOMEscan platform)

hCSNK1D = molecular target: T29, hCSNK1D (Homo sapiens, UniProt P48730); test: KINOMEscan; type: binding
T29 construct: purchased DiscoverX (KINOMEscan platform)

How did the IC50 (hRIOK2) turn out when `Cc1cn(CCN2CCN(c3ccccc3-c3cc(C#N)cc(C(=O)NCCCN4CCCC4)c3)CC2)c2ccccc12` [LLY-507, 3-cyano-5-{2-[4-[2-(3-methylindol-1-yl)ethyl]piperazin-1-yl]-phenyl}-N-[(3-pyrrolidin-1-yl)propyl]benzamide] was run?
The IC50 was greater than 20 µM.

What about the IC50 (hFXR) of the same compound?
The IC50 was greater than 10 µM.

What about the IC50 (hASK1) of the same compound?
The IC50 was greater than 20 µM.

What about the IC50 (hABL1) of the same compound?
Its IC50 is greater than 20 µM.

And the IC50 (hMET(Y1235D))?
Its IC50 is greater than 20 µM.

What about the IC50 (hJAK2(JH1Dom.-catalytic)) of the same compound?
Its IC50 is greater than 20 µM.

What about the IC50 (hKIT(D816V)) of the same compound?
The IC50 was greater than 20 µM.

What about the IC50 (hERK2) of the same compound?
Its IC50 is greater than 20 µM.

What about the IC50 (hTESK1) of the same compound?
The IC50 was greater than 20 µM.

And the IC50 ([1]; 96 h, 3 to 4-day treatment, read-out: IC50, proliferation, standard assay)?
Its IC50 is 1.5 to 6 µM.

What about the IC50 ([1]; 168 h, 7-day treatment, read-out: IC50, proliferation, longer term assay) of the same compound?
The IC50 was 0.3 to 3.2 µM.

And the inhibition at 10 µM (hD2L)?
The inhibition at 10 µM was 29.8%.

What about the IC50 (hABL1(pQ252H)) of the same compound?
Its IC50 is greater than 20 µM.

What about the IC50 (hAKT2) of the same compound?
Its IC50 is greater than 20 µM.

What about the IC50 (hCAMK1G) of the same compound?
The IC50 was greater than 20 µM.

And the IC50 (hHPK1)?
The IC50 was greater than 20 µM.

And the IC50 (hTLK1)?
Its IC50 is greater than 20 µM.

What about the IC50 (hGSK3A) of the same compound?
Its IC50 is greater than 20 µM.

What about the IC50 (hABL1(pY253F)) of the same compound?
Its IC50 is greater than 20 µM.

What about the IC50 (hAURKA) of the same compound?
The IC50 was greater than 20 µM.

What about the IC50 (hDYRK2) of the same compound?
Its IC50 is greater than 20 µM.

What about the “increase in sensitivity at 7 days compared with 3 to 4-day treatment” value (MDA MB-231 cells) of the same compound?
The value was greater than 5 fold.

And the IC50 (hMAK)?
The IC50 was greater than 20 µM.

And the IC50 (hFGFR4)?
Its IC50 is greater than 20 µM.

And the IC50 (hAURKC)?
Its IC50 is greater than 20 µM.

What about the IC50 (hWNK1) of the same compound?
The IC50 was greater than 20 µM.

What about the IC50 (hULK1) of the same compound?
The IC50 was greater than 20 µM.

And the IC50 (hYANK1)?
Its IC50 is greater than 20 µM.

And the IC50 (hTLK2)?
Its IC50 is greater than 20 µM.

And the IC50 (hEPHB2)?
Its IC50 is greater than 20 µM.

And the IC50 (hFAK)?
Its IC50 is greater than 20 µM.

And the IC50 (hLXRα)?
Its IC50 is greater than 10 µM.

And the IC50 (hLATS1)?
Its IC50 is greater than 20 µM.

What about the IC50 (hCSNK1D) of the same compound?
Its IC50 is greater than 20 µM.

Source: paper PMC4447944 (The Journal of Biological Chemistry, 2015)
